Test results: BindingDB's records for doi:10.1021/ml300172p (2012)

Legend:
[1] = Inhibition of Smo in mouse C3H10T1/2 cells assessed as inhibition of human Shh-induced cell differentiation after 48 hrs by alkaline phosphatase reporter assay
[2] = Inhibition of human Shh-induced mouse C3H10T1/2 cell differentiation after 48 hrs by alkaline phosphatase reporter assay

| Compound | IC50 [1] [µM] | IC50 [2] [µM] |
| --- | --- | --- |
| CN1C[C@@H](c2ccccc2)OC(=O)CC/C=C/C[C@@H](Cc2ccc(Cl)cc2)C1=O | 8 |  |
| CC(=O)N[C@@H]1C/C=C/CCC(=O)N[C@H](c2ccccc2)COC1=O | > 25 |  |
| O=C(C[C@@H]1C/C=C/CCC(=O)N[C@@H]2c3ccccc3C[C@@H]2OC1=O)NCc1ccc(Cl)cc1 | > 25 |  |
| CC(C)N[C@H]1C/C=C/C[C@@H](CC(=O)NCc2ccc(Cl)cc2)C(=O)NC[C@@H](c2ccccc2)OC1=O | > 25 |  |
| O=C(C[C@@H]1C/C=C/CCC(=O)O[C@H](c2ccccc2)CNC1=O)NCc1ccc(Cl)cc1 [N-(4-chlorobenzyl)-2-((2R,6S,E)-5,12-dioxo-2-phenyl-1-oxa-4-azacyclododec-8-en-6-yl)acetamide] |  | > 25 |
| CC1=C2C[C@H]3[C@@H](CC=C4C[C@@H](O)CC[C@@]43C)[C@@H]2CC[C@]12O[C@@H]1C[C@H](C)CN[C@H]1[C@H]2C |  | 0.6 |
| O=C(C[C@@H]1C/C=C/CCC(=O)N[C@H](c2ccccc2)COC1=O)NCc1ccc(Cl)cc1 | 5 |  |
| C[C@H]1NC(=O)[C@H](CC(=O)NCc2ccc(Cl)cc2)C/C=C/CCC(=O)O[C@@H]1c1ccccc1 | 11 |  |
| O=C(C[C@@H]1C/C=C/CCC(=O)N[C@@H](c2ccccc2)COC1=O)NCc1ccc(Cl)cc1 | 20 |  |
| O=C(C[C@@H]1C/C=C/CCC(=O)N[C@H](C2CCCCC2)COC1=O)NCc1ccc(Cl)cc1 | 5 |  |
| O=C(C[C@@H]1C/C=C/CCC(=O)N[C@H](Cc2ccccc2)COC1=O)NCc1ccc(Cl)cc1 | 4 |  |
| O=C(C[C@@H]1C/C=C/CCC(=O)O[C@H](c2ccccc2)CNC1=O)NCc1cccc(Cl)c1 | 5 |  |
| O=C(C[C@@H]1C/C=C/CCC(=O)N[C@H](c2ccc(Cl)cc2)COC1=O)NCc1ccc(Cl)cc1 | 0.6 |  |
| O=C(C[C@@H]1C/C=C/C[C@H](Cc2ccccc2)C(=O)N[C@H](c2ccccc2)COC1=O)NCc1ccc(Cl)cc1 | 6 |  |
| O=C(CN1C/C=C/CCC(=O)N[C@H](c2ccccc2)COC1=O)NCc1ccc(Cl)cc1 | > 25 |  |
| C[C@@H]1C/C=C/CCC(=O)N[C@H](c2ccccc2)COC1=O | > 25 |  |
| C[C@@H]1NC(=O)[C@H](CC(=O)NCc2ccc(Cl)cc2)C/C=C/CCC(=O)O[C@@H]1c1ccccc1 | 15 |  |
| C=CCCC(=O)O[C@@H](CNC(=O)[C@@H](CC=C)CC(=O)NCc1ccc(Cl)cc1)c1ccccc1 | > 25 |  |
| O=C(C[C@@H]1C/C=C/CCC(=O)OCCNC1=O)NCc1ccc(Cl)cc1 [(S,E)-N-(4-chlorobenzyl)-2-(5,12-dioxo-1-oxa-4-azacyclododec-8-en-6-yl)acetamide] | > 25 |  |
| O=C(C[C@@H]1C/C=C/CCC(=O)OC[C@@H]2CCCN2C1=O)NCc1ccc(Cl)cc1 | 15 |  |

Now from value to compound, other results behind:

| IC50 [1] [µM] | Compound | IC50 [2] [µM] |
| --- | --- | --- |
| 7 | CC(C)(C)OC(=O)C[C@@H]1C/C=C/CCC(=O)N[C@H](c2ccccc2)COC1=O |  |
| 8 | C[C@H]1[C@@H](c2ccccc2)OC(=O)CC/C=C/C[C@@H](CC(=O)NCc2ccc(Cl)cc2)C(=O)N1C |  |
| 5 | O=C(C[C@@H]1C/C=C/CCC(=O)N[C@H](c2ccc(F)cc2)COC1=O)NCc1ccc(Cl)cc1 |  |
| > 25 | CN1CCN(C(=O)C[C@@H]2C/C=C/CCC(=O)O[C@H](c3ccccc3)CNC2=O)CC1 |  |
| 23 | CC(C)[C@@H]1COC(=O)[C@H](CC(=O)NCc2ccc(Cl)cc2)C/C=C/CCC(=O)N1 |  |
| 8 | C[C@H]1C/C=C/C[C@@H](CC(=O)NCc2ccc(Cl)cc2)C(=O)OC[C@@H](c2ccccc2)NC1=O |  |
| > 10 | CCCC[C@@H]1COC(=O)[C@H](CC(=O)NCc2ccc(Cl)cc2)C/C=C/CCC(=O)N1 |  |
| 4 | C[C@H]1C/C=C\C[C@@H](CC(=O)NCc2ccc(Cl)cc2)C(=O)OC[C@@H](c2ccccc2)NC1=O |  |
| 4 | O=C(C[C@@H]1C/C=C/CCC(=O)O[C@H](c2ccccc2)CNC1=O)NCCCC(F)(F)F |  |
| 11 | C[C@H]1[C@@H](c2ccccc2)OC(=O)CCCCC[C@@H](CC(=O)NCc2ccc(Cl)cc2)C(=O)N1C |  |
